Laboratory results from patent US10793563B2, “GCN2 inhibitors and uses thereof” (Merck Patent GmbH, priority 2018, dated 2020).
pIC50: −log10 of the molar value.

What follows are compounds tested against GCN2 kinase (Homo sapiens (Human), UniProt Q9P2K8) (assay: GCN2 Enzyme Inhibition Assay (Transcreener ADP2 fluorescence polarization)). Conditions: 280 μM ATP, 200 μM (RS)7 peptide, 4 nM GCN2, 25° C.
Type: biochemical
Method in brief: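 At 25 °C, GCN2 kinase (typical final concentration 4 nM) and (RS)7 peptide in Tris-HCl pH 7.5 buffer with MgCl2, NaCl and DTT were preincubated with compound for 10 min, then ATP was added for a 1 h reaction. ADP was read by FP with antibody/Alexa633 tracer. Non-linear tight-binding analysis gave IC50 and apparent Ki.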

Chain of GCN2 kinase (Q9P2K8 whole entry): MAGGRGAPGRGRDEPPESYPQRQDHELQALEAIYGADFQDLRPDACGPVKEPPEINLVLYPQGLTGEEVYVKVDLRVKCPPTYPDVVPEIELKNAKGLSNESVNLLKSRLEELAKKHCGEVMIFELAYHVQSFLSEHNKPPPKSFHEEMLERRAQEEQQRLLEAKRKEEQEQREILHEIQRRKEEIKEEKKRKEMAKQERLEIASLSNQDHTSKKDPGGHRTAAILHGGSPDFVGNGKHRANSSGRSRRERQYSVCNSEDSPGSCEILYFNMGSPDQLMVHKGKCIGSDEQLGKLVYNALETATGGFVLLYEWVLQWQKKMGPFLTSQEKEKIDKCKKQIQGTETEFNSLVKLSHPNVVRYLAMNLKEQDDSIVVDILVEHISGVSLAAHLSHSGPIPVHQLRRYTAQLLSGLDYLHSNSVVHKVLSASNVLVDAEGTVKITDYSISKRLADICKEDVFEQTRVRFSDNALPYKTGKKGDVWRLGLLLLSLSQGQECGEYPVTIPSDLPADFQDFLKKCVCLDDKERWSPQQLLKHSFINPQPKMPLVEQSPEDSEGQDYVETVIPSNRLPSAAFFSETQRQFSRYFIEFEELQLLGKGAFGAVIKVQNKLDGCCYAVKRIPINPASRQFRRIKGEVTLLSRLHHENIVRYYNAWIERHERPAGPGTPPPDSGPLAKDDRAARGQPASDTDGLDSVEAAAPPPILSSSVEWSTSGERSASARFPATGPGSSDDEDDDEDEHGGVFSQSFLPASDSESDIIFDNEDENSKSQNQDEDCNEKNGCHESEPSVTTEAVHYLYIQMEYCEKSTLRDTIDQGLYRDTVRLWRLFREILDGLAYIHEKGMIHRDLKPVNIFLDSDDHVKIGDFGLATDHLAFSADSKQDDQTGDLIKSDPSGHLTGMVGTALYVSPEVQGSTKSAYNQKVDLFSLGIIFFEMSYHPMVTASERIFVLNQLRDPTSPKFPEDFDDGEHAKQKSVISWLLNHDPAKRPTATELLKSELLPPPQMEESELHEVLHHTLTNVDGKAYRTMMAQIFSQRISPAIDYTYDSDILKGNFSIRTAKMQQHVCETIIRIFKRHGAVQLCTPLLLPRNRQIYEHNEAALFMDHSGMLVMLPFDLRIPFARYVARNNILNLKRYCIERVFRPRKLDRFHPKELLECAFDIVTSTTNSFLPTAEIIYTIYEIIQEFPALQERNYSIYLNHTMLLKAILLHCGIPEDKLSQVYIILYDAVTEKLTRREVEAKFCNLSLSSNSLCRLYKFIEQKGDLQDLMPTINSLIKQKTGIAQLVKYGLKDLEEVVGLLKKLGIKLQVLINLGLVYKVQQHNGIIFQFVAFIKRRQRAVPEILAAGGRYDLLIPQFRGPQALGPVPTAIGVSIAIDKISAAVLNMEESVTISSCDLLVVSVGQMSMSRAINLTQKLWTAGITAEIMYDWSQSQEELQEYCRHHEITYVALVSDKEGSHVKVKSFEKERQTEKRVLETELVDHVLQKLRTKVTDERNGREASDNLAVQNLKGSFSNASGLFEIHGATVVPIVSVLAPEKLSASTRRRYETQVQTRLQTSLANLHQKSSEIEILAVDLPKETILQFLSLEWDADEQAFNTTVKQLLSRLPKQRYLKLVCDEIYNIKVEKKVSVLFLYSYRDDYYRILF

pIC50	SMILES
6.00 to 7.00	O=C(CO)N[C@H]1C[C@H](O)CN(c2ccnc(-c3cnc4ccc(C(F)(F)F)cn34)n2)C1 [I-253, 2-hydroxy-N-((3S,5S)-5-hydroxy-1-(2-(6-(trifluoromethyl)imidazo[1,2-a]pyridin-3-yl)pyrimidin-4-yl)piperidin-3-yl)acetamide]
6.00 to 7.00	FC(F)(F)c1ccc2ncc(-c3nccc(N4CCOC5(CNC5)C4)n3)n2c1 [I-412, 8-(2-(6-(trifluoromethyl)imidazo[1,2-a]pyridin-3-yl)pyrimidin-4-yl)-5-oxa-2,8-diazaspiro[3.5]nonane]
6.00 to 7.00	O=C1NC[C@]12CCCN(c1ccnc(-c3cnc4ccc(C(F)(F)F)cn34)n1)C2 [I-296, (S)-6-(2-(6-(trifluoromethyl)imidazo[1,2-a]pyridin-3-yl)pyrimidin-4-yl)-2,6-diazaspiro[3.5]nonan-1-one]
6.00 to 7.00	Cc1[nH]ncc1[C@H]1[C@H](C)N(c2ccnc(-c3cnc4ccc(C(F)(F)F)cn34)n2)CCN1C1COC1 [I-367]
6.00 to 7.00	C[C@@H]1C[C@@H](N)CN(c2ccnc(-c3cnc4ccc(Cl)cn34)n2)C1 [I-256, (3R,5R)-1-(2-(6-chloroimidazo[1,2-a]pyridin-3-yl)pyrimidin-4-yl)-5-methylpiperidin-3-amine]
6.00 to 7.00	C[C@H]1C[C@@H](N=S(C)(C)=O)CN(c2ccnc(-c3cnc4ccc(S(N)(=O)=O)cn34)n2)C1 [I-328, 3-(4-((3R,5S)-3-((dimethyl(oxo)-λ6-sulfaneylidene)amino)-5-methylpiperidin-1-yl)pyrimidin-2-yl)imidazo[1,2-a]pyridine-6-sulfonamide]
6.00 to 7.00	C[C@H]1C[C@@H](N=S(C)(C)=O)CN(c2ccnc(-c3cnc4ccc(S(=O)(=O)NC5CC5)cn34)n2)C1 [I-319, N-cyclopropyl-3-(4-((3R,5S)-3-((dimethyl(oxo)-λ6-sulfaneylidene)amino)-5-methylpiperidin-1-yl)pyrimidin-2-yl)imidazo[1,2-a]pyridine-6-sulfonamide]
7.00 to 8.00	N#CC1(C(=O)N2CCN(c3ccnc(-c4cnc5ccc(C(F)(F)F)cn45)n3)CC2c2cn[nH]c2)CC1 (centres unmarked) [I-432, 1-(2-(1H-pyrazol-4-yl)-4-(2-(6-(trifluoromethyl)imidazo[1,2-a]pyridin-3-yl)pyrimidin-4-yl)piperazine-1-carbonyl)cyclopropane-1-carbonitrile]
6.00 to 7.00	C[C@H]1[C@H](CNS(C)(=O)=O)NCCN1c1ccnc(-c2cnc3ccc(C(F)(F)F)cn23)n1 [I-471, N-(((2 S,3 S)-3-methyl-4-(2-(6-(trifluoromethyl)imidazo[1,2-a]pyridin-3-yl)pyrimidin-4-yl)piperazin-2-yl)methyl)methanesulfonamide]
6.00 to 7.00	NC1CN(c2ccnc(-c3cnc4ccc(Cl)cn34)n2)CC[C@H]1O (stereo in doubt) [I-255, (3R,4R)-3-amino-1-(2-(6-chloroimidazo[1,2-a]pyridin-3-yl)pyrimidin-4-yl)piperidin-4-ol]
7.00 to 8.00	O=C1CCC(C(=O)N2CCN(c3ccnc(-c4cnc5ccc(C(F)(F)F)cn45)n3)CC2c2cn[nH]c2)N1 (centres unmarked) [I-469, 5-(2-(1H-pyrazol-4-yl)-4-(2-(6-(trifluoromethyl)imidazo[1,2-a]pyridin-3-yl)pyrimidin-4-yl)piperazine-1-carbonyl)pyrrolidin-2-one]
7.00 to 8.00	Cc1[nH]ncc1[C@H]1CN(c2ccnc(-c3cnc4cc(F)c(C5CC5)cn34)n2)C[C@H](C)O1 [I-428, (2S,6S)-4-(2-(6-cyclopropyl-7-fluoroimidazo[1,2-a]pyridin-3-yl)pyrimidin-4-yl)-2-methyl-6-(5-methyl-1H-pyrazol-4-yl)morpholine]

Further lines, the compound ahead of its results:

SMILES	pIC50
CC(=O)NC1CCCN(c2ccnc(-c3cnc4ccc(C(F)(F)F)cn34)n2)C1 (centres unmarked) [I-187, N-(1-(2-(6-(trifluoromethyl)imidazo[1,2-a]pyridin-3-yl)pyrimidin-4-yl)piperidin-3-yl)acetamide]	7.00 to 8.00
CC1CN(c2ccnc(-c3cnc4ccc(Cl)cn34)n2)C(C)C(c2cn[nH]c2)N1 (centres unmarked) [I-122, 6-Chloro-3-(4-(2,5-dimethyl-3-(1H-pyrazol-4-yl)piperazin-1-yl)pyrimidin-2-yl)imidazo[1,2-a]pyridine]	> 8.00
O=C(C1CCCN(c2ccnc(-c3cnc4ccc(C(F)(F)F)cn34)n2)C1)N1CCCC1 (centres unmarked) [I-131, pyrrolidin-1-yl(1-(2-(6-(trifluoromethyl)imidazo[1,2-a]pyridin-3-yl)pyrimidin-4-yl)piperidin-3-yl)methanone]	6.00 to 7.00
Cc1nn(C)cc1[C@H]1CN(c2nccc(-c3cnc4ccc(C(F)(F)F)cn34)n2)C[C@H](C)O1 [I-156, (2S,6S)-2-(1,3-dimethyl-1H-pyrazol-4-yl)-6-methyl-4-(4-(6-(trifluoromethyl)imidazo[1,2-a]pyridin-3-yl)pyrimidin-2-yl)morpholine]	6.00 to 7.00
O=C(O)C1CC(F)CN(c2ccnc(-c3cnc4ccc(C(F)(F)F)cn34)n2)C1 (centres unmarked) [I-206, 5-fluoro-1-[2-(6-trifluoromethyl-imidazo[1,2-a]pyridin-3-yl)-pyrimidin-4-yl]-piperidine-3-carboxylic acid]	7.00 to 8.00
C[C@H]1CN(c2ccnc(-c3cnc4ccc(C(F)(F)F)cn34)n2)C[C@H](C(N)=O)O1 [I-129, (2R,6 S)-6-methyl-4-(2-(6-(trifluoromethyl)imidazo[1,2-a]pyridin-3-yl)pyrimidin-4-yl)morpholine-2-carboxamide]	7.00 to 8.00
NC(=O)[C@@H]1CCCN(c2nccc(-c3cnc4ccc(C(F)(F)F)cn34)n2)C1 [I-152, (R)-1-(4-(6-(trifluoromethyl)imidazo[1,2-a]pyridin-3-yl)pyrimidin-2-yl)piperidine-3-carboxamide]	7.00 to 8.00
C[C@H]1CN(c2nccc(-c3cnc4ccc(C(F)(F)F)cn34)n2)C[C@@H](c2nn[nH]n2)O1 [I-189, (2S,6S)-2-methyl-6-(2H-tetrazol-5-yl)-4-(4-(6-(trifluoromethyl)imidazo[1,2-a]pyridin-3-yl)pyrimidin-2-yl)morpholine]	7.00 to 8.00
